{"source": "patent EP4667463A1", "about": "“DOMIDE MOLECULAR GLUE DERIVATIVE AND USE THEREOF” (CSPC Megalith Biopharmaceutical Co., Ltd., priority 2023, dated 2024)", "key": {"GSPT1 protein": {"molecular_target": "T1, GSPT1 protein (Homo sapiens, UniProt P15170+Q96SW2)", "T1 construct": "An HiBiT protein tag was added to the N-terminus of the endogenous GSPT1 protein of HEK293T cells by CRISPR gene editing technology; endogenous in cells; host or cells: HEK293T (CRISPR knock-in HiBiT-GSPT1 cell strain)", "T1 sequence (P15170 whole entry)": "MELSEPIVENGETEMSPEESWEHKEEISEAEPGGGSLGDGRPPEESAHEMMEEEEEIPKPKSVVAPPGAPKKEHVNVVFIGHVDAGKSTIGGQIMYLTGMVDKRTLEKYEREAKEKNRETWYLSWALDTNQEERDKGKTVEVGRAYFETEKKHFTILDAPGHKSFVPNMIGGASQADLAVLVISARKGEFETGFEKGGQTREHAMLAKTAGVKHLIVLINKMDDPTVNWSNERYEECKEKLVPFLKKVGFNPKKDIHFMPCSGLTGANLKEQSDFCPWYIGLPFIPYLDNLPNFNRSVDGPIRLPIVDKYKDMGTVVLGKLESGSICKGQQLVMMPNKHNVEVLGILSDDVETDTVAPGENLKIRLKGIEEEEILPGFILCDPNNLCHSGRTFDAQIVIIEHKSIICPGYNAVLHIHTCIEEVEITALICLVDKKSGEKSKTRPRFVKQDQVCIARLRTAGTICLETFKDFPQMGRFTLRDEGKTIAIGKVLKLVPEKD", "T1 sequence (Q96SW2 whole entry)": "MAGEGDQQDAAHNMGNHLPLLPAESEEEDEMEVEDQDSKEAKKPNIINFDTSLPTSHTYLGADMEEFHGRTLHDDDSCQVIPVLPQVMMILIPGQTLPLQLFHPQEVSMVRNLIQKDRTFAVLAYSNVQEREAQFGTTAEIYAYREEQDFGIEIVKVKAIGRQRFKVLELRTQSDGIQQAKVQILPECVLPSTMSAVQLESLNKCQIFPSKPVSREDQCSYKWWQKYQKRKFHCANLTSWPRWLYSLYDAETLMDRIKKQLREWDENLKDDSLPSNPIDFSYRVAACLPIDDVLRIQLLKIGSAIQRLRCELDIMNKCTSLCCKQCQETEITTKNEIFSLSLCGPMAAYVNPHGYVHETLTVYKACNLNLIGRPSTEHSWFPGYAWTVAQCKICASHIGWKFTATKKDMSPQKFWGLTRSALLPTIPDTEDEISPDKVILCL", "T1 sequence (Q16531 whole entry partner)": "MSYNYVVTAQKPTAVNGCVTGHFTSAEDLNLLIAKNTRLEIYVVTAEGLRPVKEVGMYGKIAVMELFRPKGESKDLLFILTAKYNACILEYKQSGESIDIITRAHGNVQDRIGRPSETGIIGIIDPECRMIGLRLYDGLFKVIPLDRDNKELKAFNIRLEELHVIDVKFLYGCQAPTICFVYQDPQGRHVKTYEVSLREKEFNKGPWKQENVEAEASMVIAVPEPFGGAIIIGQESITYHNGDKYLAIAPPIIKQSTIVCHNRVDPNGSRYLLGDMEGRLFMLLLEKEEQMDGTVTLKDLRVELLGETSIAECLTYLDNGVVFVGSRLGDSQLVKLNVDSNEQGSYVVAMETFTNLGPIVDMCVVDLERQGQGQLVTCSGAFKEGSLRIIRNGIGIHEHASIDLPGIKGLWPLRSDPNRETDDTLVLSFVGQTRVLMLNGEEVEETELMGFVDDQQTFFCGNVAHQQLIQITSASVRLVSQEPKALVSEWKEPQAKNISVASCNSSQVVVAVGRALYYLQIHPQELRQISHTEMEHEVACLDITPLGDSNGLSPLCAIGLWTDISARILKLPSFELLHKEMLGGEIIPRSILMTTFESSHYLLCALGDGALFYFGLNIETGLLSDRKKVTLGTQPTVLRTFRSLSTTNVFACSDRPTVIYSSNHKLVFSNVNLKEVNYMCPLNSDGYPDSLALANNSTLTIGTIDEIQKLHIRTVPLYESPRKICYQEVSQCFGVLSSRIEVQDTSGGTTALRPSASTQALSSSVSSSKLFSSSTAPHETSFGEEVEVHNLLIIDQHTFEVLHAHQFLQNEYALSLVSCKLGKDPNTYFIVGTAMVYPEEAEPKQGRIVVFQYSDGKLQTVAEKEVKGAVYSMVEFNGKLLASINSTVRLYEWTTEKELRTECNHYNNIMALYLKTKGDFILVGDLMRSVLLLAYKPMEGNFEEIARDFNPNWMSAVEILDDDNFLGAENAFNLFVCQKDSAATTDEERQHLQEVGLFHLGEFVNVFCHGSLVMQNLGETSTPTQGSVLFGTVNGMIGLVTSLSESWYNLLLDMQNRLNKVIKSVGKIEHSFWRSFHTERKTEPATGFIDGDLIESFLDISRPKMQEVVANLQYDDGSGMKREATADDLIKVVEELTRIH", "assay": "GSPT1 protein degradation, Nano-Glo HiBiT assay in HiBiT-GSPT1 HEK293T cells", "format": "cell-based", "settings": "24 h", "protocol": "This experiment was performed to evaluate the targeting property of the compounds. An HiBiT protein tag was added to the N-terminus of the endogenous GSPT1 protein of HEK293T cells by CRISPR gene editing technology, so as to construct a HiBiT-GSPT1 HEK293T stably transfected cell strain. HiBiT-GSPT1 HEK293T cells were cultured in DMEM containing 10% FBS and 1% PenStrep. When the cell confluency reached 80%-90%, the cells were digested with trypsin, pipetted into single cells, and resuspended in a corresponding culture medium to form a cell suspension. The cells were counted using Cell Countess (NanoEnTek, #Cat. EVE-MC2), and the cell viability was determined by trypan blue exclusion to ensure that the cell viability was above 90%. The cells were plated in a 384-well plate (Corning, #Cat. 3764) at 10,000 cells/40 µL of cell suspension per well, and cultured in an incubator at 37 °C with 5% CO2 overnight. The next day, the test compounds were added to the 384-well plate under conditions of 30 µM highest concentration, 5-fold serial dilution, and 1‰ DMSO. The plate was incubated in the incubator at 37 °C with 5% CO2 for another 24 h. Before measurement, the Nano-Glo HiBiT reagent was equilibrated to room temperature, the LgBiT protein was diluted with the Nano-Glo HiBiT Lytic buffer according to a dilution ratio of 1:100, and the Nano-Glo@HiBiT Lytic substrate was diluted to an appropriate volume according to a ratio of 1:50. After the cell culture plate was equilibrated at room temperature for 10 min, 40 µL of Nano-Glo HiBiT Lytic assay reagent was added to each well. The plate was shaken on a microplate shaker at a rotation speed of 300 rpm for 3 min in the dark. After the reaction was completed, the luminescencevalues were read on BMG PHERASTAR FS (BMG LRBTECH, Cat. No.: PHERAstar FSX), and the DC50 values were calculated using GraphPad Prism 8.0. Table 2. GSPT1 protein degradation"}, "[1]": {"assay": "Metabolic stability in liver microsomes", "settings": "Monkey liver microsomes, after 60 min of incubation", "procedure": "(§2) The final concentration of the substrate in the incubation system was 1 µM, and the incubation time was 60 min. Sampling was performed at 0 min, 5 min, 15 min, 30 min, and 60 min. The reaction was stopped with glacial acetonitrile containing an internal standard (testosterone-d3 at a concentration of 10 ng/mL). Verapamil was used as a positive control. […] The natural logarithm of the remaining percentage was subjected to linear fitting with time to determine the elimination rate constant (k)."}, "HL-60": {"test_system": "HL-60", "assay": "In vitro anti-tumor activity of molecular glue compounds, CellTiter-Lumi cell viability assay", "format": "cell-based", "settings": "Homo sapiens; HL-60 cells, 96 h incubation; read-out: Cell inhibitory activity (IC50 values) HL-60", "protocol": "(§1) Different tumor cells were all commercially available and used for evaluating the anti-tumor inhibitory activity of the compounds of the present disclosure. Various tumor cells were cultured until the cell confluency reached 80%-90%, with cell viability above 90% as determined by trypan blue exclusion. Then, the cells were plated. Specifically, after cell density optimization, 100 µL of each of the cell suspensions of HL-60 and SK-BR-3 cells (cell density: 3000 cells/well), Romas cells (cell density: 6000 cells/well), NCI-H929 cells (cell density: 4000 cells/well), and NCI-H82 cells (cell density: 5000 cells/well) was plated in a BeyoGold™ ultra-low attachment black clear-bottom 96-well plate (Cat. No.: FULA965-24pcs), and the plate was incubated overnight. The next day, after the adherent cells were adhered to the wall and suspension cells requiring aggregation were aggregated, 50 µL of culture medium was aspirated from each well of the 96-well plate. Then, the compounds diluted with the corresponding culture media were added. Specifically, the compounds were serially diluted at a 5-fold gradient starting from the highest concentration of 1 µM, with a final DMSO concentration of 1%o, and the test compounds were then added to the cell culture plate. The plate was incubated in an incubator at 37 °C with 5% carbon dioxide for 96 h. Before measurement, the CellTiter-Lumi™ luminescent cell viability assay reagent was equilibrated to room temperature in the dark. Then, 50 µL of the CellTiter-Lumi™ (Cat. No.: C0065XL) cell viability assay reagent was added to each well of the 96-well plate. The plate was shaken in the dark on a shaker at 300 rpm for 10 min to ensure complete cell lysis. After the reaction was completed, the luminescence was measured on a multi-mode microplate reader. The cell inhibition rate was determined according to the luminescence. Then, a cell viability curve was generated by Graphpad Prism 8.0, and the IC50 values were calculated. The compounds of the present disclosure were tested for activity by the method described above. Table 1. Cell inhibitory activity (IC50 values)"}, "Romas": {"test_system": "Romas", "assay": "In vitro anti-tumor activity of molecular glue compounds, CellTiter-Lumi cell viability assay", "format": "cell-based", "settings": "Romas cells, 96 h incubation; read-out: Cell inhibitory activity (IC50 values) Romas", "protocol": "as §1"}, "NCI-H82": {"test_system": "NCI-H82", "assay": "In vitro anti-tumor activity of molecular glue compounds, CellTiter-Lumi cell viability assay", "format": "cell-based", "settings": "Homo sapiens; NCI-H82 cells, 96 h incubation; read-out: Cell inhibitory activity (IC50 values) NCI-H82", "protocol": "as §1"}, "SK-BR-3": {"test_system": "SK-BR-3", "assay": "In vitro anti-tumor activity of molecular glue compounds, CellTiter-Lumi cell viability assay", "format": "cell-based", "settings": "Homo sapiens, SK-BR-3 cells", "protocol": "as §1"}, "NCI-H929": {"test_system": "NCI-H929", "assay": "In vitro anti-tumor activity of molecular glue compounds, CellTiter-Lumi cell viability assay", "format": "cell-based", "settings": "Homo sapiens; NCI-H929 cells, 96 h incubation; read-out: Cell inhibitory activity (IC50 values) NCI-H929", "protocol": "as §1"}, "in vitro [2]": {"assay": "in vitro", "settings": "rat, liver microsomes", "procedure": "as §2"}, "in vitro [3]": {"assay": "in vitro", "settings": "human, liver microsomes", "procedure": "as §2"}, "[4]": {"assay": "Metabolic stability in liver microsomes", "settings": "Human liver microsomes, after 60 min of incubation", "procedure": "as §2"}, "[5]": {"assay": "Metabolic stability in liver microsomes", "settings": "Mouse liver microsomes, after 60 min of incubation", "procedure": "as §2"}, "in vitro [6]": {"assay": "in vitro", "settings": "monkey, liver microsomes", "procedure": "as §2"}}, "note": "Where two headings read alike, the source gives them in different places.", "data": [{"smiles": "O=C1CCC(N2Cc3cc(CNC(=O)Nc4ccc(CCCOC5CCCNC5)c(Cl)c4)ccc3C2=O)C(=O)N1", "note": "(stereo not shown) [Compound B19]", "values": [{"measurement": "DC50", "setting": "GSPT1 protein", "value": 66.2, "unit": "nM"}, {"measurement": "Parent drug remaining %", "setting": "[1]", "value": 77.7, "unit": "%"}, {"measurement": "IC50", "setting": "HL-60", "value": "< 10", "unit": "nM"}, {"measurement": "IC50", "setting": "Romas", "value": "< 10", "unit": "nM"}, {"measurement": "IC50", "setting": "NCI-H82", "value": "10 to 50", "unit": "nM"}, {"measurement": "IC50", "setting": "SK-BR-3; 96 h incubation, read-out: Cell inhibitory activity (IC50 values) SK-BR-3", "value": "< 10", "unit": "nM"}, {"measurement": "IC50", "setting": "SK-BR-3; read-out: SK-BR-3 IC50", "value": 3.62, "unit": "nM"}, {"measurement": "IC50", "setting": "NCI-H929", "value": "< 10", "unit": "nM"}, {"measurement": "CLint scaled at 1 µM", "setting": "in vitro [2]", "value": 6.55, "unit": "mL/min/kg"}, {"measurement": "half-life at 1 µM", "setting": "in vitro [2]", "value": 6.32, "unit": "h"}, {"measurement": "CLint scaled at 1 µM", "setting": "in vitro [3]", "value": 5.8, "unit": "mL/min/kg"}, {"measurement": "half-life at 1 µM", "setting": "in vitro [3]", "value": 5, "unit": "h"}, {"measurement": "Parent drug remaining %", "setting": "[4]", "value": 80.5, "unit": "%"}, {"measurement": "Parent drug remaining %", "setting": "[5]", "value": 92.8, "unit": "%"}, {"measurement": "CLint scaled at 1 µM", "setting": "in vitro [6]", "value": 11.3, "unit": "mL/min/kg"}, {"measurement": "half-life at 1 µM", "setting": "in vitro [6]", "value": 3, "unit": "h"}]}]}
